Data on 1 compound can be found in patent US20060141546A1, “Bacterial test method by glycated label binding” (priority 2002, published 2006).

For one test, the system named is bacteria. In words: Effect of divalent cations on ALP binding to bacteria (Example 7, Table 5, FIG. 12). The procedure:
(§1) Bacterial cells (1 to 4.5×10^7 cells/mL) were washed twice with water after centrifugation to separate cells into a packed pellet from the supernatant liquid. The washed cells in pellet form were suspended in 20 μL of EPPS buffer (50 mM at pH 8.0) and 30 μL of water. […]
(§2) The mixture of glycated protein and bacterial cells was left at 25° C. for 15 minutes. The mixture was then centrifuged at 30,000 rpm for 30 minutes after which the bacterial cells formed a pellet at the bottom of the tube and were washed with water 4-5 times (50 μL). Centrifugation allows separation of glycoprotein bound to the bacteria cells from unbound glycated protein(s).
(§3) After washing, the bacterial pellets were suspended in 50 μL of borate buffer (25 mM at pH 9.0). A 5 μL aliquot of the suspension was assayed for detection of ALP binding by adding 5 μL of para-nitrophenol phosphate (PNPP, 100 mM), 50 μL sodium borate buffer (25 mM at pH 9.0) and 140 μL of water. […] The color was read at 405 nm using an ELISA plate reader between 15-30 min; the absorbance is directly proportional to the amount of ALP bound to the bacteria cell.

The test system of a further test is S. faecalis strain. As to the kind of experiment: Zinc concentration dependent ALP binding (Example 7, FIG. 11). The following applies: increasing concentration of zinc. The procedure: Bacterial cells (1 to 4.5×10^7 cells/mL) were washed twice with water after centrifugation to separate cells into a packed pellet from the supernatant liquid. The washed cells in pellet form were suspended in 20 μL of EPPS buffer (50 mM at pH 8.0) and 30 μL of water. Bovine intestinal alkaline phosphatase (ALP) (2 μg or […]) was added and 0.2 mM of several cations.
as §2
After washing, the bacterial pellets were suspended in 50 μL of borate buffer (25 mM at pH 9.0). […] The color was read at 405 nm using an ELISA plate reader between 15-30 min; the absorbance is directly proportional to the amount of ALP bound to the bacteria cell.
Concentration dependent binding study has been performed in the presence of increasing concentration of zinc with S. faecalis strain as shown in FIG. 11. […] The studies have been continued with different strains of bacteria in the presence of 1 mM Zn^2+ and the ALP binding could be monitored even at 10^5 bacteria concentration (FIG. 12).

Test [1] relates to bacteria (Sf—Staph. faec.; Ec: E. coli). As to the kind of experiment: Effect of various cations on ALP binding to bacteria (Example 8, FIGS. 13-14). The following applies: cations 2 mM, bovine intestinal mucosa ALP, FIG. 13. The procedure:
as §1
The mixture of glycated protein and bacterial cells was left at 25° C. for 15 minutes. The mixture was then centrifuged at 30,000 rpm for 30 minutes after which the bacterial cells formed a pellet at the bottom of the tube and was washed with water 4-5 times (50 μL). Centrifugation allows separation of glycoprotein bound to the bacteria cells from unbound glycated protein(s).
as §3

Test [2] relates to bacteria (both Staph and E. coli). As to the kind of experiment: Cation effect on ALP binding, bound ALP assayed in glycine buffer pH 10.0 (Example 9, FIGS. 17-18). The following applies: binding at pH 8.0 in EPPS buffer, assay in glycine buffer pH 10.0, FIGS. 17-18. The procedure:
The binding was conducted at pH 8.0 in EPPS buffer.

For `[Cl-].[Cl-].[Zn+2]` [ZnCl2], the “effect of cation on binding of ALP to the bacteria (in words)” value in the test with bacteria (0.2 mM) is “significantly higher binding of ALP”. Moreover, the “O.D. at 405 nm, With ALP” value in the test with bacteria (bacteria plus cation (CaCl2 1 mM, MgCl2 1 mM, ZnCl2 0.2 mM) with ALP) turned out to be 0.53 O.D. The “O.D. at 405 nm, No ALP” value with bacteria (bacteria plus cation (CaCl2 1 mM, MgCl2 1 mM, ZnCl2 0.2 mM), no ALP) came out at 0.23 O.D. Besides, the “zinc concentration at which optimum binding occurs” value with S. faecalis strain is 1 mM. In test [1], the “effect of various cations on ALP-binding (in words)” value is given as “stimulate ALP-binding”. Besides, in test [2], the “cation effectiveness for binding of ALP to the bacteria” value is given as “best metal”.
